Reference: patent publication US7723329B2, “Substituted-3-sulfonylindazole derivatives as 5-hydroxytryptamine-6 ligands” (Wyeth LLC, priority 2005, dated 2010)

molecular target: T1, human cloned 5-HT6 receptors (Homo sapiens, UniProt P50406); assay: 5-HT6 binding affinity, [3H]-LSD displacement; settings: membranes of Hela cells expressing human cloned 5-HT6 receptors; [3H]-LSD 3.0 nM; 120 minutes at room temperature
T1 construct: expressed in transfected cells; host or cells: HeLa cells
Method: The affinity of test compounds for the serotonin 5-HT6 receptor was evaluated in the following manner. Cultured Hela cells expressing human cloned 5-HT6 receptors were harvested and centrifuged at low speed (1,000×g) for 10.0 minutes to remove the culture media. The harvested cells were suspended in half volume of fresh physiological phosphate buffered saline solution and recentrifuged at the same speed. This operation was repeated. The collected cells were then homogenized in ten volumes of 50 mM Tris.HCl (pH 7.4) and 0.5 mM EDTA. The homogenate was centrifuged at 40,000×g for 30.0 min and the precipitate was collected. The obtained pellet was resuspended in 10 volumes of Tris.HCl buffer and recentrifuged at the same speed. The final pellet was suspended in a small volume of Tris.HCl buffer and the tissue protein content was determined in aliquots of 10-25 μl volumes. […] The volume of the suspended cell membranes was adjusted to give a tissue protein concentration of 1.0 mg/ml of suspension. The prepared membrane suspension (10 times concentrated) was aliquoted in 1.0 ml volumes and stored at −70° C. until used in subsequent binding experiments.
The bound complex caught on the filter disk was allowed to air dry and the radioactivity is measured in a Packard TopCount® equipped with six photomultiplier detectors, after the addition of 40.0 μl Microscint®-20 scintillant to each shallow well. The unifilter plate was heat-sealed and counted in a PackardTopCount® with a tritium efficiency of 31.0%.
Specific binding to the 5-HT6 receptor was defined as the total radioactivity bound less the amount bound in the presence of 10.0 μM unlabeled methiothepin. Binding in the presence of varying concentrations of test compound was expressed as a percentage of specific binding in the absence of test compound. The results were plotted as log % bound versus log concentration of test compound. […] A linear regression line of data points was plotted, from which the IC50 value is determined and the Ki value is determined based upon the following equation: Ki=IC50/(1+L/KD) where L was the concentration of the radioactive ligand used and KD is the dissociation constant of the ligand for the receptor, both expressed in nM.

T1 sequence (P50406 whole entry): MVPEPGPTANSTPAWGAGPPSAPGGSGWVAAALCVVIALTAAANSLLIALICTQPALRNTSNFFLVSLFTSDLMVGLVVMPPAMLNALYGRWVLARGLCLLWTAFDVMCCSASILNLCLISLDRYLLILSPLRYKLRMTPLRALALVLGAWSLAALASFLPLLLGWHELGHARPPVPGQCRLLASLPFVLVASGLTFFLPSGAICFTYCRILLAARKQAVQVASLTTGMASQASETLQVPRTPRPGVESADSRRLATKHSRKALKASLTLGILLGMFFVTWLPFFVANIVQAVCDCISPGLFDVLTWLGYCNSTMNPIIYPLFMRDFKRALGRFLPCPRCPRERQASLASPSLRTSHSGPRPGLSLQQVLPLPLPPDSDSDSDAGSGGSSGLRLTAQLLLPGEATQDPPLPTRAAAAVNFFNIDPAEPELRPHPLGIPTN

Row | SMILES | Ki [nM]
1 | CCN(C)CCOc1ccc2c(c1)c(S(=O)(=O)c1cccc3ccccc13)nn2C [Example 42, Ethyl-methyl-{2-[1-methyl-3-(naphthalene-1-sulfonyl)-1H-indazol-5-yloxy]-ethyl}-amine] | 0.01 to 10
2 | CCN(CC)CCOc1ccc2c(c1)c(S(=O)(=O)c1cccc3ccccc13)nn2C [Example 43, Diethyl-{2-[1-methyl-3-(naphthalene-1-sulfonyl)-1H-indazol-5-yloxy]-ethyl}-amine] | 0.01 to 10
3 | CCNCCOc1ccc2c(c1)c(S(=O)(=O)c1cccc3ccccc13)nn2C [Example 44, Ethyl-{2-[1-methyl-3-(naphthalene-1-sulfonyl)-1H-indazol-5-yloxy]-ethyl}-amine] | 0.01 to 10
4 | CC(C)NCCOc1ccc2c(c1)c(S(=O)(=O)c1cccc3ccccc13)nn2C [Example 45, Isopropyl-{2-[1-methyl-3-(naphthalene-1-sulfonyl)-1H-indazol-5-yloxy]-ethyl}-amine] | 0.01 to 10
5 | Cn1nc(S(=O)(=O)c2cccc3ccccc23)c2cc(OCCN3CCCC3)ccc21 [Example 46, 1-Methyl-3-(naphthalene-1-sulfonyl)-5-(2-pyrrolidin-1-yl-ethoxy)-1H-indazole] | 0.01 to 10
6 | CCN(C)CCOc1ccc2c(c1)c(S(=O)(=O)c1cccc3ccccc13)nn2Cc1ccccc1 [Example 47, {2-[1-Benzyl-3-(naphthalene-1-sulfonyl)-1H-indazol-5-yloxy]-ethyl}-ethyl-methyl-amine] | 26 to 35
7 | CNCCOc1ccc2c(c1)c(S(=O)(=O)c1cccc3ccccc13)nn2Cc1ccccc1 [Example 48, {2-[1-Benzyl-3-(naphthalene-1-sulfonyl)-1H-indazol-5-yloxy]-ethyl}-methyl-amine] | 26 to 35
8 | CC(C)NCCOc1ccc2c(c1)c(S(=O)(=O)c1cccc3ccccc13)nn2Cc1ccccc1 [Example 49, {2-[1-Benzyl-3-(naphthalene-1-sulfonyl)-1H-indazol-5-yloxy]-ethyl}-isopropyl-amine] | 26 to 35
9 | CCN(CC)CCOc1ccc2c(c1)c(S(=O)(=O)c1cccc3ccccc13)nn2Cc1ccccc1 [Example 50, {2-[1-Benzyl-3-(naphthalene-1-sulfonyl)-1H-indazol-5-yloxy]-ethyl}-diethyl-amine] | 36 to 45
10 | CN(C)CCOc1ccc2c(c1)c(S(=O)(=O)c1cccc3ccccc13)nn2Cc1ccccc1 [Example 51, {2-[1-Benzyl-3-(naphthalene-1-sulfonyl)-1H-indazol-5-yloxy]-ethyl}-dimethyl-amine] | 11 to 25
11 | O=S(=O)(c1cccc2ccccc12)c1nn(Cc2ccccc2)c2ccc(OCCN3CCCC3)cc12 [Example 52, 1-Benzyl-3-(naphthalene-1-sulfonyl)-5-(2-pyrrolidin-1-yl-ethoxy)-1H-indazole] | > 45
12 | CCNCCOc1ccc2c(c1)c(S(=O)(=O)c1cccc3ccccc13)nn2Cc1ccccc1 [Example 53, {2-[1-Benzyl-3-(naphthalene-1-sulfonyl)-1H-indazol-5-yloxy]-ethyl}-ethyl-amine] | 11 to 25
13 | CN(C)CCOc1ccc2c(c1)c(S(=O)(=O)c1cccc3ccccc13)nn2Cc1cccc(Cl)c1 [Example 54, {2-[1-(3-Chloro-benzyl)-3-(naphthalene-1-sulfonyl)-1H-indazol-5-yloxy]-ethyl}-dimethyl-amine] | 11 to 25
14 | CCN(C)CCOc1ccc2c(c1)c(S(=O)(=O)c1cccc3ccccc13)nn2Cc1cccc(Cl)c1 [Example 55, {2-[1-(3-Chloro-benzyl)-3-(naphthalene-1-sulfonyl)-1H-indazol-5-yloxy]-ethyl}-ethyl-methyl-amine] | > 45
15 | CCN(CC)CCOc1ccc2c(c1)c(S(=O)(=O)c1cccc3ccccc13)nn2Cc1cccc(Cl)c1 [Example 56, {2-[1-(3-Chloro-benzyl)-3-(naphthalene-1-sulfonyl)-1H-indazol-5-yloxy]-ethyl}-diethyl-amine] | > 45
16 | CC(C)NCCOc1ccc2c(c1)c(S(=O)(=O)c1cccc3ccccc13)nn2Cc1cccc(Cl)c1 [Example 57, {2-[1-(3-Chloro-benzyl)-3-(naphthalene-1-sulfonyl)-1H-indazol-5-yloxy]-ethyl}-isopropyl-amine] | 36 to 45
17 | O=S(=O)(c1cccc2ccccc12)c1nn(Cc2cccc(Cl)c2)c2ccc(OCCN3CCCC3)cc12 [Example 58, 1-(3-Chloro-benzyl)-3-(naphthalene-1-sulfonyl)-5-(2-pyrrolidin-1-yl-ethoxy)-1H-indazole] | 26 to 35
18 | CNCCOc1ccc2c(c1)c(S(=O)(=O)c1cccc3ccccc13)nn2Cc1cccc(Cl)c1 [Example 59, {2-[1-(3-Chloro-benzyl)-3-(naphthalene-1-sulfonyl)-1H-indazol-5-yloxy]-ethyl}-methyl-amine] | > 45

Row | SMILES | Ki [nM]
19 | CCNCCOc1ccc2c(c1)c(S(=O)(=O)c1cccc3ccccc13)nn2Cc1cccc(Cl)c1 [Example 60, {2-[1-(3-Chloro-benzyl)-3-(naphthalene-1-sulfonyl)-1H-indazol-5-yloxy]-ethyl}-ethyl-amine] | 11 to 25
20 | O=S(=O)(c1cccc2ccccc12)c1n[nH]c2ccc(OCCCCN3CCCCC3)cc12 [Example 61, 3-(1-naphthylsulfonyl)-5-(4-piperidin-1-ylbutoxy)-1H-indazole] | 0.01 to 10
21 | CCNCCCCOc1ccc2[nH]nc(S(=O)(=O)c3cccc4ccccc34)c2c1 [Example 63] | 0.01 to 10
22 | CN(C)CCCCOc1ccc2[nH]nc(S(=O)(=O)c3cccc4ccccc34)c2c1 [Example 64] | 0.01 to 10
23 | CCCN(C)CCCCOc1ccc2[nH]nc(S(=O)(=O)c3cccc4ccccc34)c2c1 [Example 65] | 0.01 to 10
24 | CCN(CC)CCCCOc1ccc2[nH]nc(S(=O)(=O)c3cccc4ccccc34)c2c1 [Example 66] | 0.01 to 10
25 | O=S(=O)(c1cccc2ccccc12)c1n[nH]c2ccc(OCCCCN3CCCC3)cc12 [Example 67] | 0.01 to 10
26 | NCCCCOc1ccc2[nH]nc(S(=O)(=O)c3cccc4ccccc34)c2c1 [Example 68, (4-{[3-(1-naphthylsulfonyl)-1H-indazol-5-yl]oxy}butyl)amine] | 0.01 to 10
27 | NCCOc1cccc2c(S(=O)(=O)c3cccc4ccccc34)nn(Cc3cccc(Cl)c3)c12 [Example 69, (2-{[1-(3-Chlorobenzyl)-3-(1-naphthylsulfonyl)-1-H-indazol-7-yl]oxy}ethyl) amine] | 26 to 35
28 | CNCCOc1cccc2c(S(=O)(=O)c3cccc4ccccc34)nn(Cc3cccc(Cl)c3)c12 [Example 70, (2-{[1-(3-Chlorobenzyl)-3-(1-naphthylsulfonyl)-1-H-indazol-7-yl]oxy}ethyl) methylamine] | 11 to 25
29 | NCCOc1cccc2c(S(=O)(=O)c3cccc4ccccc34)n[nH]c12 [Example 76, (2-{[3-(1-naphthylsulfonyl)-1-H-indazol-7-yl]oxy}ethyl)amine] | 0.01 to 10
30 | CNCCOc1cccc2c(S(=O)(=O)c3cccc4ccccc34)n[nH]c12 [Example 77] | 0.01 to 10
31 | CN(C)CCOc1cccc2c(S(=O)(=O)c3cccc4ccccc34)n[nH]c12 [Example 78] | 0.01 to 10
32 | CCNCCOc1cccc2c(S(=O)(=O)c3cccc4ccccc34)n[nH]c12 [Example 79] | 11 to 25
33 | O=S(=O)(c1cccc2ccccc12)c1n[nH]c2c(OCCN3CCCCC3)cccc12 [Example 80] | 0.01 to 10
34 | O=S(=O)(c1cccc2ccccc12)c1n[nH]c2c(OCCN3CCCC3)cccc12 [Example 81] | 0.01 to 10
35 | CNCCOc1cccc2c(S(=O)(=O)c3ccccc3)nn(Cc3cccc(Cl)c3)c12 [Example 82] | 11 to 25
